Assays:
[1] = biological target: recombinant human Bcl-2-G101V protein (Homo sapiens (Human), UniProt P10415, G101V); experiment: Bcl-2-G101V TR-FRET Assay; format: binding; details: Bcl-2 G101V mutant, TR-FRET; read-out: Biochemical assay (IC50, nM) Bcl-2 G101V
How it was run: (§1)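 Measures how compounds block Bcl-2-G101V engaging its ligand, by TR-FRET with 337 nm excitation and a 490/520 nm emission ratio; dose-response data give IC50 via a four-parameter logistic model.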

[2] = test system: recombinant human Bcl-2-G101V protein; experiment: Bcl-2-G101V TR-FRET Assay; format: binding; details: ratio of biochemical IC50 Bcl-2 G101V / Bcl-2 WT
How it was run: as §1

[3] = test system: BCL-2 G101V knock-in cell line H96 (derive from RS4;11); experiment: Bcl 2-G101V Knock-In RS4;11 Cell Proliferation Assay; format: cell-based; details: Homo sapiens, RS4;11 Bcl-2 G101V knock-in clone H96, 48 hrs, CellTiter-GLO, read-out: Cellular proliferation assay (IC50, nM) RS4
How it was run: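 H96, a CRISPR-generated RS4;11 clone carrying BCL2-G101V knock-in (WES/RNA-seq validated), seeded 50,000 per well and exposed 48 h at 37 °C to 10-point dilutions topping at 1 or 10 μM. Viability by CellTiter-Glo luminescence; mean IC50.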

[4] = biological target: Recombinant human Bcl-2 protein (Homo sapiens (Human), UniProt P10415); experiment: Bcl-2 TR-FRET Assay; format: binding; details: Bcl-2 wild type, TR-FRET; read-out: Biochemical assay (IC50, nM) Bcl-2 WT
How it was run: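 0.05 nM Bcl-2 pre-incubated 0.5 h at room temperature with 10-point compound dilutions (top final 1, 0.1, 0.02 or 0.01 uM) in 20 mM potassium phosphate pH 7.5, 50 mM NaCl, 1 mM EDTA, 0.05% Tween-20, 0.01% BSA; FITC-Bak peptide (0.5 nM) and anti-6His Tb cryptate added, 1 h. IC50 from four-parameter logistic fit.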

[5] = test system: RS4;11 (BCL-2 dependent acute lymphoblastic leukemia cell line); experiment: RS4;11 Cell Proliferation Assay; format: cell-based; details: Homo sapiens, RS4-11, RS4;11 cells, read-out: Cellular proliferation assay (IC50, nM) RS4
How it was run: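 RS4;11 cells, 50,000 per well in RPMI-1640 with 10% FBS, treated 48 h at 37 °C with a 10-point dilution series topping at 1 μM. Viability read by CellTiter-Glo ATP luminescence; mean IC50 reported.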

| SMILES | IC50 [1] [nM] | Ratio of Bcl-2 G101V/WT [2] | IC50 [3] [nM] | IC50 [4] [nM] | IC50 [5] [nM] |
| --- | --- | --- | --- | --- | --- |
| COc1cc(CN2CCN(C3CC4(C3)CN(c3ccc(C(=O)NS(=O)(=O)c5ccc(NC[C@H]6CC[C@](C)(O)CC6)c([N+](=O)[O-])c5)c(Oc5cnc6[nH]ccc6c5)c3)C4)[C@H](c3ccccc3C(C)C)C2)ccc1C(C)C [Example 270, 2-((1H-pyrrolo[2,3-b]pyridin-5-yl)oxy)-N-((4-((((1r,4r)-4-hydroxy-4-methylcyclohexyl)methyl)amino)-3-nitrophenyl)sulfonyl)-4-(6-((R)-4-(4-isopropyl-3-methoxybenzyl)-2-(2-isopropylphenyl)piperazin-1-yl)-2-azaspiro[3.3]heptan-2-yl) benzamide] | 2.9 | 2.6 | 0.64 | 1.1 | 0.16 |
| [2H]C([2H])([2H])Oc1ccc(CN2CCN(C3CC4(CCN(c5ccc(C(=O)NS(=O)(=O)c6ccc(NC[C@H]7CC[C@](C)(O)CC7)c([N+](=O)[O-])c6)c(Oc6cnc7[nH]cc(Cl)c7c6)c5)CC4)C3)[C@H](c3ccccc3C(C)C)C2)cc1OC([2H])([2H])[2H] [Example 250, 4-(2-((R)-4-(3,4-bis(methoxy-d3)benzyl)-2-(2-isopropylphenyl)piperazin-1-yl)-7-azaspiro[3.5]nonan-7-yl)-2-((3-chloro-1H-pyrrolo[2,3-b]pyridin-5-yl)oxy)-N-((4-((((1r,4r)-4-hydroxy-4-methylcyclohexyl)methyl)amino)-3-nitrophenyl)sulfonyl)benzamide] | 0.52 | 5.7 | 1.06 | 0.09 | 0.16 |
| CC(C)c1ccccc1[C@@H]1CN(C2CC2)CCN1C1CC2(CCN(c3ccc(C(=O)NS(=O)(=O)c4ccc(NC[C@H]5CC[C@](C)(O)CC5)c([N+](=O)[O-])c4)c(Oc4cnc5[nH]ccc5c4)c3)CC2)C1 (single isomer, unassigned) [Example 4, 2-((1H-pyrrolo[2,3-b]pyridin-5-yl)oxy)-4-(2-((R or S)-4-cyclopropyl-2-(2-isopropylphenyl)piperazin-1-yl)-7-azaspir[3.5]nonan-7-yl)-N-((4-((((1r,4r)-4-hydroxy-4-methylcyclohexyl)methyl)amino)-3-nitrophenyl)sulfonyl)benzamide] | 1.6 | 35.6 | 9.56 | 0.045 | 0.87 |
| CC(C)c1ccccc1C1CN(CC2CCOc3ccccc32)CCN1C1CC2(CCN(c3ccc(C(=O)NS(=O)(=O)c4ccc(NC[C@H]5CC[C@](C)(O)CC5)c([N+](=O)[O-])c4)c(Oc4cnc5[nH]ccc5c4)c3)CC2)C1 (stereo partly shown) [Example 57, 2-((1H-pyrrolo[2,3-b]pyridin-5-yl)oxy)-4-(2-(4-(chroman-4-ylmethyl)-2-(2-isopropylphenyl)piperazin-1-yl)-7-azaspiro[3.5]nonan-7-yl)-N-((4-((((1r,4r)-4-hydroxy-4-methylcyclohexyl)methyl)amino)-3-nitrophenyl)sulfonyl)benzamide] | 2.2 | 5.0 | 8.9 | 0.44 | 0.8 |
| CC(C)c1ccccc1[C@@H]1CN(CC2C3CC4CC(C3)CC2C4)CCN1C1CC2(CCN(c3ccc(C(=O)NS(=O)(=O)c4ccc(NC[C@H]5CC[C@](C)(O)CC5)c([N+](=O)[O-])c4)c(Oc4cnc5[nH]ccc5c4)c3)CC2)C1 (stereo partly drawn) [Example 259, 2-((1H-pyrrolo[2,3-b]pyridin-5-yl)oxy)-4-(2-((2R)-4-(((1R,3S,5R)-adamantan-2-yl)methyl)-2-(2-isopropylphenyl)piperazin-1-yl)-7-azaspiro[3.5]nonan-7-yl)-N-((4-((((1r,4r)-4-hydroxy-4-methylcyclohexyl)methyl)amino)-3-nitrophenyl)sulfonyl)benzamide] | 3.4 | 3.8 | 4.2 | 0.91 | 0.55 |

— patent US20240376097A1, “BCL-2 Inhibitor” (BeiGene Ltd., priority 2020, published 2024)
